{
  "source": "ChEMBL document CHEMBL3885881",
  "about": "“DrugMatrix”",
  "species": "Rattus norvegicus",
  "test": "DrugMatrix - Regimen: Daily Repeat",
  "assay_type": "toxicity, organism-based, Sprague-Dawley",
  "design": "regimen Daily Repeat, gender Male, age 6-8 weeks",
  "settings": "in vivo, po, route oral GAVAGE, vehicle .5 % CMC; for BASOPHIL / EOSINOPHIL / ERYTHROCYTE COUNT / HEMATOCRIT / HEMOGLOBIN / LEUKOCYTE COUNT / LYMPHOCYTE / MEAN CORPUSCULAR HEMOGLOBIN / MEAN CORPUSCULAR HEMOGLOBIN CONCENTRATION / MEAN CORPUSCULAR VOLUME / MONOCYTE / NEUTROPHIL / PLATELET COUNT: tissue Blood; for ALANINE AMINOTRANSFERASE / ALBUMIN / ALKALINE PHOSPHATASE / ASPARTATE AMINOTRANSFERASE / BLOOD UREA NITROGEN / CHLORIDE / CHOLESTEROL / CREATINE PHOSPHOKINASE / CREATININE / GLUCOSE / PHOSPHORUS / POTASSIUM / SODIUM / TOTAL BILIRUBIN / TOTAL PROTEIN: tissue Plasma",
  "key": {"[1]": {"settings": "0 mg/kg, 72 h, dose level Control, time 3 day"}, "[2]": {"settings": "0 mg/kg, 120 h, dose level Control, time 5 day"}, "[3]": {"settings": "1 mg/kg, 72 h, dose level Low, time 3 day"}},
  "data": [
    {"smiles": "N=C(N)NC(=O)c1nc(Cl)c(N)nc1N", "note": "[AMILORIDE]", "values": [
      {"measurement": "BASOPHIL", "setting": "[1]", "result": 0, "unit": "%"},
      {"measurement": "EOSINOPHIL", "setting": "[1]", "result": 0.33, "unit": "%"},
      {"measurement": "ERYTHROCYTE COUNT", "setting": "[1]", "result": 6.2, "unit": "x10E6/uL"},
      {"measurement": "HEMATOCRIT", "setting": "[1]", "result": 38.08, "unit": "%"},
      {"measurement": "HEMOGLOBIN", "setting": "[1]", "result": 14.92, "unit": "G/DL"},
      {"measurement": "LEUKOCYTE COUNT", "setting": "[1]", "result": 11.13, "unit": "x10E3/uL"},
      {"measurement": "LYMPHOCYTE", "setting": "[1]", "result": 76, "unit": "%"},
      {"measurement": "MEAN CORPUSCULAR HEMOGLOBIN", "setting": "[1]", "result": 24.1, "unit": "pg"},
      {"measurement": "MEAN CORPUSCULAR HEMOGLOBIN CONCENTRATION", "setting": "[1]", "result": 39.17, "unit": "G/DL"},
      {"measurement": "MEAN CORPUSCULAR VOLUME", "setting": "[1]", "result": 61.48, "unit": "fL"},
      {"measurement": "MONOCYTE", "setting": "[1]", "result": 3.83, "unit": "%"},
      {"measurement": "NEUTROPHIL", "setting": "[1]", "result": 19.83, "unit": "%"},
      {"measurement": "PLATELET COUNT", "setting": "[1]", "result": 1327.5, "unit": "x10E3/uL"},
      {"measurement": "ALANINE AMINOTRANSFERASE", "setting": "[1]", "result": 40.17, "unit": "u/L"},
      {"measurement": "ALBUMIN", "setting": "[1]", "result": 4.07, "unit": "G/DL"},
      {"measurement": "ALKALINE PHOSPHATASE", "setting": "[1]", "result": 372, "unit": "u/L"},
      {"measurement": "ASPARTATE AMINOTRANSFERASE", "setting": "[1]", "result": 67.17, "unit": "u/L"},
      {"measurement": "BLOOD UREA NITROGEN", "setting": "[1]", "result": 18.83, "unit": "mg/dL"},
      {"measurement": "CHLORIDE", "setting": "[1]", "result": 105.17, "unit": "MEQ/L"},
      {"measurement": "CHOLESTEROL", "setting": "[1]", "result": 78.17, "unit": "mg/dL"},
      {"measurement": "CREATINE PHOSPHOKINASE", "setting": "[1]", "result": 149.17, "unit": "u/L"},
      {"measurement": "CREATININE", "setting": "[1]", "result": 0.57, "unit": "mg/dL"},
      {"measurement": "GLUCOSE", "setting": "[1]", "result": 185.17, "unit": "mg/dL"},
      {"measurement": "PHOSPHORUS", "setting": "[1]", "result": 11.43, "unit": "mg/dL"},
      {"measurement": "POTASSIUM", "setting": "[1]", "result": 6.78, "unit": "MEQ/L"},
      {"measurement": "SODIUM", "setting": "[1]", "result": 152.83, "unit": "MEQ/L"},
      {"measurement": "TOTAL BILIRUBIN", "setting": "[1]", "result": 0.4, "unit": "mg/dL"},
      {"measurement": "TOTAL PROTEIN", "setting": "[1]", "result": 6.87, "unit": "G/DL"},
      {"measurement": "BASOPHIL", "setting": "[2]", "result": 0, "unit": "%"},
      {"measurement": "EOSINOPHIL", "setting": "[2]", "result": 0, "unit": "%"},
      {"measurement": "ERYTHROCYTE COUNT", "setting": "[2]", "result": 6.05, "unit": "x10E6/uL"},
      {"measurement": "HEMATOCRIT", "setting": "[2]", "result": 36.55, "unit": "%"},
      {"measurement": "HEMOGLOBIN", "setting": "[2]", "result": 14.7, "unit": "G/DL"},
      {"measurement": "LEUKOCYTE COUNT", "setting": "[2]", "result": 11.8, "unit": "x10E3/uL"},
      {"measurement": "LYMPHOCYTE", "setting": "[2]", "result": 86.83, "unit": "%"},
      {"measurement": "MEAN CORPUSCULAR HEMOGLOBIN", "setting": "[2]", "result": 24.37, "unit": "pg"},
      {"measurement": "MEAN CORPUSCULAR HEMOGLOBIN CONCENTRATION", "setting": "[2]", "result": 40.32, "unit": "G/DL"},
      {"measurement": "MEAN CORPUSCULAR VOLUME", "setting": "[2]", "result": 60.47, "unit": "fL"},
      {"measurement": "MONOCYTE", "setting": "[2]", "result": 0.83, "unit": "%"},
      {"measurement": "NEUTROPHIL", "setting": "[2]", "result": 12.33, "unit": "%"},
      {"measurement": "PLATELET COUNT", "setting": "[2]", "result": 1177, "unit": "x10E3/uL"},
      {"measurement": "ALANINE AMINOTRANSFERASE", "setting": "[2]", "result": 41.83, "unit": "u/L"},
      {"measurement": "ALBUMIN", "setting": "[2]", "result": 3.75, "unit": "G/DL"},
      {"measurement": "ALKALINE PHOSPHATASE", "setting": "[2]", "result": 377.5, "unit": "u/L"},
      {"measurement": "ASPARTATE AMINOTRANSFERASE", "setting": "[2]", "result": 60.83, "unit": "u/L"},
      {"measurement": "BLOOD UREA NITROGEN", "setting": "[2]", "result": 16, "unit": "mg/dL"},
      {"measurement": "CHLORIDE", "setting": "[2]", "result": 105.67, "unit": "MEQ/L"},
      {"measurement": "CHOLESTEROL", "setting": "[2]", "result": 67.83, "unit": "mg/dL"},
      {"measurement": "CREATINE PHOSPHOKINASE", "setting": "[2]", "result": 120.33, "unit": "u/L"},
      {"measurement": "CREATININE", "setting": "[2]", "result": 0.6, "unit": "mg/dL"},
      {"measurement": "GLUCOSE", "setting": "[2]", "result": 167.67, "unit": "mg/dL"},
      {"measurement": "PHOSPHORUS", "setting": "[2]", "result": 10.03, "unit": "mg/dL"},
      {"measurement": "POTASSIUM", "setting": "[2]", "result": 6.68, "unit": "MEQ/L"},
      {"measurement": "SODIUM", "setting": "[2]", "result": 150.5, "unit": "MEQ/L"},
      {"measurement": "TOTAL BILIRUBIN", "setting": "[2]", "result": 0.57, "unit": "mg/dL"},
      {"measurement": "TOTAL PROTEIN", "setting": "[2]", "result": 6.25, "unit": "G/DL"},
      {"measurement": "BASOPHIL", "setting": "[3]", "result": 0, "unit": "%"},
      {"measurement": "EOSINOPHIL", "setting": "[3]", "result": 1.33, "unit": "%"},
      {"measurement": "ERYTHROCYTE COUNT", "setting": "[3]", "result": 6.13, "unit": "x10E6/uL"},
      {"measurement": "HEMATOCRIT", "setting": "[3]", "result": 37.63, "unit": "%"},
      {"measurement": "HEMOGLOBIN", "setting": "[3]", "result": 14.93, "unit": "G/DL"},
      {"measurement": "LEUKOCYTE COUNT", "setting": "[3]", "result": 12.73, "unit": "x10E3/uL"},
      {"measurement": "LYMPHOCYTE", "setting": "[3]", "result": 84, "unit": "%"},
      {"measurement": "MEAN CORPUSCULAR HEMOGLOBIN", "setting": "[3]", "result": 24.37, "unit": "pg"},
      {"measurement": "MEAN CORPUSCULAR HEMOGLOBIN CONCENTRATION", "setting": "[3]", "result": 39.67, "unit": "G/DL"},
      {"measurement": "MEAN CORPUSCULAR VOLUME", "setting": "[3]", "result": 61.4, "unit": "fL"},
      {"measurement": "MONOCYTE", "setting": "[3]", "result": 0.67, "unit": "%"},
      {"measurement": "NEUTROPHIL", "setting": "[3]", "result": 14, "unit": "%"},
      {"measurement": "PLATELET COUNT", "setting": "[3]", "result": 1265, "unit": "x10E3/uL"},
      {"measurement": "ALANINE AMINOTRANSFERASE", "setting": "[3]", "result": 50, "unit": "u/L"},
      {"measurement": "ALBUMIN", "setting": "[3]", "result": 3.87, "unit": "G/DL"},
      {"measurement": "ALKALINE PHOSPHATASE", "setting": "[3]", "result": 414, "unit": "u/L"},
      {"measurement": "ASPARTATE AMINOTRANSFERASE", "setting": "[3]", "result": 63.67, "unit": "u/L"},
      {"measurement": "BLOOD UREA NITROGEN", "setting": "[3]", "result": 15.67, "unit": "mg/dL"},
      {"measurement": "CHLORIDE", "setting": "[3]", "result": 107, "unit": "MEQ/L"},
      {"measurement": "CHOLESTEROL", "setting": "[3]", "result": 81.33, "unit": "mg/dL"},
      {"measurement": "CREATINE PHOSPHOKINASE", "setting": "[3]", "result": 135.67, "unit": "u/L"},
      {"measurement": "CREATININE", "setting": "[3]", "result": 0.57, "unit": "mg/dL"},
      {"measurement": "GLUCOSE", "setting": "[3]", "result": 168.67, "unit": "mg/dL"},
      {"measurement": "PHOSPHORUS", "setting": "[3]", "result": 10.33, "unit": "mg/dL"},
      {"measurement": "POTASSIUM", "setting": "[3]", "result": 6.13, "unit": "MEQ/L"},
      {"measurement": "SODIUM", "setting": "[3]", "result": 152.33, "unit": "MEQ/L"},
      {"measurement": "TOTAL BILIRUBIN", "setting": "[3]", "result": 0.43, "unit": "mg/dL"},
      {"measurement": "TOTAL PROTEIN", "setting": "[3]", "result": 6.37, "unit": "G/DL"}
    ]}
  ]
}
